Measured values from patent US20070037831A1, “Methods of using PDE 5 inhibitors for the treatment of congestive heart failure” (priority 2004, published 2007).
pIC50: −log10 of the molar value.

Molecular target: PDE V (Homo sapiens, UniProt O76074)
Assay: PDE V inhibition (PDE V IC50)
Assay type: biochemical
Details: not given

| SMILES | pIC50 |
| --- | --- |
| CCCn1c(=O)n(CC)c(=O)c2c1nc(NC1CCCCC1)n2Cc1ccc2c(c1)OCO2 [Compound 175] | 8.00 to 8.30 |
| CCn1c(=O)c2c(nc(NC3CCOCC3)n2Cc2ccc(S(N)(=O)=O)c(Br)c2)n(CC)c1=O [Compound 190] | 8.00 to 8.30 |
| CCn1c(=O)c2c(nc(NC3(CO)CC=CC3)n2Cc2ccc(OC)cc2)n(C)c1=O [Compound 25] | 7.00 to 7.82 |
| CCn1c(=O)c2c(nc(NC3CCCCC3)n2Cc2cccc(Cl)c2)n(CC)c1=O [Compound 120] | 7.00 to 7.82 |
| CCCn1c(=O)n(CC)c(=O)c2c1nc(NC1CCCCC1)n2Cc1ccc(O)c(C)c1 [Compound 178] | ≥ 8.30 |
| CCn1c(=O)c2c(nc(NC3CCCCC3)n2Cc2ccc(S(N)(=O)=O)c(Br)c2)n(CCO)c1=O [Compound 184] | 7.00 to 7.82 |
| COc1ccc(Cn2c(NC3(CO)CCCC3)nc3c2c(=O)n(C)c(=O)n3C)cc1 [Compound 13] | 7.00 to 7.82 |
| CCn1c(=O)c2c(nc(NC3(CO)CCCC3)n2Cc2ccc(OC)cc2)n(CC(C)C)c1=O [Compound 41] | 7.00 to 7.82 |
| CCn1c(=O)c2c(nc(NC3CCCCC3)n2Cc2cc3c(cc2Cl)OCO3)n(CCO)c1=O [Compound 108] | 7.82 to 8.00 |
| CCn1c(=O)c2c(nc(N[C@@H]3CCC[C@H]3O)n2Cc2ccc(O)c(C)c2)n(CCO)c1=O [Compound 113] | 7.00 to 7.82 |
| CCn1c(=O)c2c(nc(NC3CCCCC3)n2Cc2ccccc2F)n(CC)c1=O [Compound 165] | 7.00 to 7.82 |
| CCn1c(=O)[nH]c2nc(NC3CCCC3)n(Cc3ccc(O)cc3)c2c1=O [Compound 95] | 8.00 to 8.30 |

Other lines, results leading:

| pIC50 | SMILES |
| --- | --- |
| 8.00 to 8.30 | CCn1c(=O)c2c(nc(NC3CCCCC3)n2Cc2ccc(O)cc2)n(C)c1=O [Compound 78] |
| 7.00 to 7.82 | COc1cccc(Cn2c(NC3CCCCC3)nc3c2c(=O)n(C)c(=O)n3C)c1 [Compound 141] |
| 7.00 to 7.82 | CCn1c(=O)[nH]c2nc(NC3CCCCC3)n(Cc3ccc(OC)cc3)c2c1=O [Compound 92] |
| 8.00 to 8.30 | COc1ccc(Cn2c(NC3CCCCC3)nc3c2c(=O)n(C)c(=O)n3C)cc1Cl [Compound 159] |
| 7.00 to 7.82 | COc1ccc(Cn2c(NC3CCCCC3)nc3c2c(=O)[nH]c(=O)n3C)cc1 [Compound 70] |
| 7.00 to 7.82 | Cn1c(=O)c2c(nc(NC3CCCCC3)n2Cc2ccc(F)cc2)n(C)c1=O [Compound 138] |
| 7.82 to 8.00 | CCn1c(=O)c2c(nc(NC3CCCCC3)n2Cc2ccc(OC)cc2)n(C)c1=O [Compound 23] |

Molecular target: T1, type V phosphodiesterase (Homo sapiens, UniProt O76074)
T1 construct: endogenous in cells; host or cells: vasculature of patients with heart failure (in vivo)
Assay: not given
Details: patients with heart failure, acute; cited from earlier work

| SMILES | endothelium dependent vasodilation |
| --- | --- |
| CCCc1nn(C)c2c(=O)[nH]c(-c3cc(S(=O)(=O)N4CCN(C)CC4)ccc3OCC)nc12 [Sildenafil] | acutely enhance endothelium dependent vasodilation |

Molecular target: T2, ETA receptor (Homo sapiens, UniProt P25101)
T2 sequence (P25101 21-427): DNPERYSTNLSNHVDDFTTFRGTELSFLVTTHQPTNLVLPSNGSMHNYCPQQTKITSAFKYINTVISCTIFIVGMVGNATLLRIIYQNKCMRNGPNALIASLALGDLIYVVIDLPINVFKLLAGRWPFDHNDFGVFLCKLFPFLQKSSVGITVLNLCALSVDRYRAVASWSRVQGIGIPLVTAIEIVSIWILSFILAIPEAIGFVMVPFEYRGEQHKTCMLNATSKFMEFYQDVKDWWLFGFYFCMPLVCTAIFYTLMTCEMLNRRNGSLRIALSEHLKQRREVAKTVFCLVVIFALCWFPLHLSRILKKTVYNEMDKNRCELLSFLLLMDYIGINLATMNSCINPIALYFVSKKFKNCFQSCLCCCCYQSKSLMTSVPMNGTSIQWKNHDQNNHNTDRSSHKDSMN
Assay: not given
Details: among the ETA receptor antagonists; cited from earlier work

| SMILES | selectivity over ETB |
| --- | --- |
| Cc1cc2c(cc1CC(=O)c1sccc1S(=O)(=O)Nc1onc(C)c1Cl)OCO2 [sitaxsentan] | particularly selective over ETB |
